Measurements taken from article PMC2585100 (Retrovirology, 2008).
Where two headings read alike, the source gives them in different places.

Assays:
[1] = test system: T20-sensitive HIV-1 strains (pre-ENF and JRCSF); assay: Single-cycle infectivity assay, T20-sensitive strains, U373MG-CD4-CCR5-LTR-lacZ cells; type: cell-based; details: P5 more potent than T20
Description: (§1) We constructed viruses bearing the envelope glycoproteins derived from virus populations present before and during T20 treatment of a patient who received T20 as part of a salvage therapy, as we reported earlier. […] Each chimeric proviral clone was obtained by replacing the AgeI-NheI fragment of a modified pNL4-3 vector (nt 6346 to 8287 in pNL4-3) by a AgeI-NheI PCR fragment amplified from the envelope subclone. Sequences of oligonucleotides used for PCR and site-directed mutagenesis can be provided upon request. […] [29].
(§2) These assays were performed as previously described. Two days before infection, U373MG-CD4-CCR5-LTR-lacZ cells were seeded into 96-well plates at a density of 2,000 cells/well. […] Forty hours after infection, cells were lysed using 100 μl/well of lysis buffer (5 mM MgCl2 and 0.1% NP-40 in 1× phosphate-buffered saline), prior to addition of 100 μl/well of chromogenic substrate (6 mM chlorophenol red-β-D-galactopyranoside; CPRG, Roche) in lysis buffer.

[2] = test system: primary human CD4+ T cells; assay: Binding of peptides to CD4+ target cells (2F5 IgG, flow cytometry), primary cells; details: 1 h at room temperature, RPMI 10% FCS, micro-molar range
Description: (§3) Binding of peptides was evaluated using either the lymphocytic cell line CD4^+- CEM-NK^r (NK-resistant) cells (NIH AIDS Reagent Programm, USA)or PHA-activated CD4^+ T cells purified from peripheral blood of 5 healthy donors using human CD4^+ T cells enrichment kit (StemCell Technologies Inc., France). 5 × 10^5 cells were incubated with indicated concentrations of peptide for 1 h at room temperature in a total volume of 50 microliter/μl of RPMI 10%FCS. After 2 wahses in cold medium, bound peptide was detected with the human IgG 2F5 (10 microg/μg), or irrelevant human IgG as control, for 1 h at 37°C followed anti-human IgG-FITC mAb (1:1000, Jackson ImmunoResearch, France). Binding of peptides to CD4^+ cells was evaluated by flow cytometry (FACSCalibur, Becton Dickinson) on 10^4 events, gated by forward and side scatter and analyzed for FL1 (FITC channel) using the Cytomix RXP software.

HIV-1JRCSF (R5 virus) = type: cell-based; details: PBMC, peptide at 1 μM
Description: (§4) Neutralization of HIV-1 infectivity for PBMC was performed as previously described by analysing intracellular staining of p24 Ag after a single round of infection. […] PHA-stimulated PBMC (25 μl, 2 × 10^5 cells/well) were added to the mixture. After overnight incubation, 100 μl of culture medium containing 20 U/ml of IL-2 were added and cells were cultured for an additional 24 h at 37°C. For intracellular p24 Ag staining, cells were fixed with 4% paraformaldehyde for 20 min, permeabilized with 0.05% saponin and stained with a fluorescent anti-p24 mAb (PE-anti-p24, KC57 clone, Beckman Coulter, Hialeah, FL) as a 1/160 dilution in 1% BSA, 0.05% saponin in PBS (pH = 7.4) for 15–20 min at 4°C. The percentage of p24 positive cells was monitored by flow cytometry (FACScalibur with the XL software) by gating 20,000 events on the living cell population identified by forward- and side-scatter parameters.

[3] = test system: CD4+ CEM-NKr lymphocytic cell line; assay: Binding of peptides to CD4+ target cells (2F5 IgG, flow cytometry), cell line; set-up: species or system human; details: 1 h at room temperature, RPMI 10% FCS, micro-molar range
Description: as §3

[4] = set-up: method as in 2 sources, one per row (each row's own in cited_ref): ref 20 = [20]; PMID 17553560; doi:10.1016/j.ceca.2007.04.011; Yu H Alfsen A Tudor D Bomsel M The binding of HIV-1 gp41 membrane proximal domain to its mucosal receptor, galactosyl ceramide, is structure-dependent Cell Calcium 2008 43 73 82 17553560 10.1016/j.cec ||| ref 36 = [36]; PMID 17276993; doi:10.1074/jbc.M609148200; Liu S Jing W Cheung B Lu H Sun J Yan X Niu J Farmar J Wu S Jiang S HIV gp41 C-terminal heptad repeat contains multifunctional domains. Relation to mechanisms of action of anti-HIV peptides J Biol Chem; details: Table 1, left column; cited from earlier work
HIV-1Lai (X4 virus) = assay: Neutralization of HIV-1 infection of PBMC, intracellular p24 staining (X4 virus); type: cell-based; details: peptide at 1 μM
Description: as §4

[5] = test system: T20-resistant HIV-1 strains (ENF-1 and ENF-2); assay: Single-cycle infectivity assay, T20-resistant strains, U373MG-CD4-CCR5-LTR-lacZ cells; type: cell-based; details: at concentrations as much as 250- to 2000-fold higher than the IC50 of P5
Description: as §1, §2

[6] = test system: HIV-Lai env mediated fusion of Hela-env-Lai cells with HeLa P4.2 (Hela-CD4-LTR-LacZ) cells; assay: HIV-1 env-mediated cell-to-cell fusion assay (β-galactosidase read-out); type: cell-based; details: for IC50: 6 h co-culture at 37°C, DMEM with calcium, others chemically synthesized; for inhibition of cell-cell fusion: peptide at 1 μM
Description: Fifteen minutes later, target cells (HeLa P4.2) were added to the wells (10^5 per well) and co-cultured for 6 h at 37°C. Then, cell-cell fusion was monitored by beta-galactosidase assay. Briefly, cells were lysed in 80 μl of lysis buffer (5% NP40 in PBS without CaCl2 and MgCl2) for 10 min and then centrifuged at 10,000 g for 5 min at 4°C. Equal volumes (50 μl) of lysate and reaction buffer (120 mM Na2HPO4, 80 mM NaH2PO4, 2 mM MgSO4, 20 mM KCl, 10 mM β-mercaptoethanol, 16 mM CPRG (chlorophenol red-β-D-galactopyranoside, Roche, France) were combined and incubated for 60 min at room temperature in the dark. The absorbance at 590 nm of each sample was measured.
Cell fusion experiments are convenient assays for analysis of the mechanism by which peptides inhibit virus entry into host cells. Hela-CD4-LTR-LacZ (P4.2) cells stably express the human CD4 molecule, CXCR4 and long terminal repeat (LTR) driven lacZ gene. Hela-env-Lai cells stably express HIV-Lai envelope glycoproteins gp120 and gp41, and the HIV-1 transactivator Tat. Fusion of Hela-Env-Lai cells and P4.2 cells results in transferring Tat to P4.2 cell cytosol. Tat in turn, transactivates the LTR and initiates transcription of the lacZ gene. The extent of fusion is directly related to β-galactosidase activity in cell lysates.
Different concentrations (≤ 1 μM) of peptides were incubated with HeLa-env-Lai cells in culture medium (DMEM) that contained calcium and magnesium, prior to addition of the P4.2 cells.

[7] = Far-UV circular dichroism, α-helical content; type: physicochemical; details: 10 μM in PBS
Description: Far-UV circular dichroism (CD) was performed using 10 μM of each peptide solution in PBS. Each spectrum was recorded from 260 nm to 190 nm at 25°C by using a Jasco CD spectrophotometer (Jasco, Japan) with a cell path length of 0.05 cm. Spectra were collected as an average of three scans, with a scan speed of 20 nm/min and a response time of 2 sec. The control (solvent) CD spectra were subtracted to eliminate background effects. Data were reported in millidegrees and converted to molar ellipticity [θ] in units as follows: degree cm^2 dmol^-1. The percentage of α-helical content was estimated by assuming that a [θ]222 value of -33000 deg cm^2 dmol^-1corresponds to 100% α-helix.
CD spectroscopy is a practical and efficient method for secondary structure characterization of a protein or peptide.
Far-UV CD spectra were all recorded at room temperature, with a path-length of 0.05 cm. Peptide concentration was 10 microM in PBS, pH 7.2.

Enfuvirtide
activity against T20-sensitive strains (in words) [1]: active
binding to primary human CD4+ T cells (in words) [2]: unable to bind
inhibitory activity, R5 virus infection (HIV-1JRCSF (R5 virus)): greater than 90%
binding to CD4+ lymphocyte cell line CEM (in words) [3]: unable to bind
[θ]222 [4]: -2 10^-3deg cm^2dmol^-1
inhibitory activity, X4 virus infection (HIV-1Lai (X4 virus); PBMC): greater than 90%
inhibition of PBMC infection by X4 virus (in words) (HIV-1Lai (X4 virus); human PBMC, HIV-Lai): potent inhibition
inhibition of T20-resistant strains (in words) [5]: failed to inhibit

LZ: peptide comprising the gp41 N-terminal leucine zipper domain, a.a. 560–594 (EAQQHLLQLTVWGIKQLQARILAVERYLKDQQLLG; gp41; UniProt P04578 560-594, looked up, fragment)
IC50 ([6]; Table 2, right column, alone or in the presence of LZ, P7 recombinant, read-out: IC50 (nM, Mean ± S.D.)): > 1000 nM
inhibition of cell-cell fusion [6]: negligible inhibition
[θ]222 ([7]; Table 1, chemically synthesized peptides alone or with LZ): -4 10^-3deg cm^2dmol^-1

N36: gp41 NHR peptide a.a. 546–581, from the AIDS Research and Reference Reagent Program [Peptide N36]
IC50 ([6]; Table 2, left column, peptides 50 to 1000 nM, P5L recombinant, read-out: IC50g (nM, Mean ± S.D.)): > 1000 nM
inhibition of cell-cell fusion [6]: negligible inhibition
[θ]222 ([7]; Table 1, left column, chemically synthesized peptides alone or with N36): -6 10^-3deg cm^2dmol^-1
